Reference: patent US10736973B2, “Glucose analogs for diagnosis states” (TECHNOLOGY INNOVATION MOMENTUM FUND (ISRAEL) LIMITED …, priority 2014, dated 2020)

Tests used:
DA3 mammary tumors = assay: In vivo CEST MRI of DA3 mammary tumor bearing mice; set-up: species or system BALB/c mice
Protocol: CEST MRI experiments were performed on a Bruker 7T Biospec scanner with 30 cm bore size on implanted xenograph mammary tumors of mice before and following the injection of the glucose analog 3OMG. DA3 tumor bearing mice that were allowed to grow for 10-14 days, with an average tumor volume of 5 mm^3 were scanned. The mice were anesthetized using isoflurane (1-2%) and scanned with surface coil. Their temperature was monitored and maintained at 37° C. We performed i.p injections of the contrast medium, 3OMG (in saline, pH=7.4).
Images were generated as follows: a series of gradient-echo images were collected from a single 1 mm axial slice of (acquisition matrix 128×64, field of view of 40×40 mm2) after 1.2 s presaturation pulse of 2.5 μT (106 Hz) at ±1.2 ppm from the water signal. For the MTRasym plot, the mean intensities were used within the selected region of interest (ROI) within the tumor.
Having determined in vitro that 3OMG concentrations of only a few millimolar could be detected with CEST method (FIGS. 1-4), the determination of the potential use of 3OMG CEST MRI to image mammary tumors, in vivo, was carried out. Thus performed 3OMG CEST MRI experiments were carried out on mice bearing DA3 tumors injected with 3OMG glucose analog. Tumor anatomy was initially imaged using T2 weighted spin echo sequence (RARE).

[1] = in vivo; cited from earlier work
DA3 tumors = assay: CEST NMR of MCW extracts of tumors from treated mice; assay type: in vivo, BALB/C mice; settings: 25 min after 1.5 g/kg; compared with D-glu; B1=2.5 μT, pH=7.0, T=25° C., 11.7 T
Protocol: (§1) • Chemicals and Media: 3OMG, D-glucose, D-glucose 6 phosphate, 2-DG and 2-DG-6P sodium salt were obtained from Sigma-Aldrich, Israel; FDG was obtained from Carbosynth Limited, UK. The glucose analogs were prepared at concentration of 10 mM (pH=7.5), containing 10% D2O for NMR field locking. • Cells: DA3-D1-DMBA-3 is a cell line derived from a poorly differentiated mammary adenocarcinoma induced in BALB/C mice by dimethylbenzanthracene. • Animals: BALB/C female mice were purchased and kept in the breeding facility of the Sackler School of Medicine, Tel Aviv University. To induce orthotropic tumors in mice, DA3 cells were injected into the lower left mammary gland of 8 week old (17-22 gr) female BALB/c mice (5×10^5 cells in 100 μL saline). […] Each sample was dissolved in 0.5 ml D2O (99.98%, Biolab, Israel), adjusted at pH=6.5-7 and inserted into 5 mm tube for NMR. • NMR Spectroscopy: 1H NMR Spectra were recorded at 500 MHz in 5 mm tubes on a Bruker 500 MHz DRX with the following parameters: spectral width 7500 Hz, pulse width 5.5 us (corresponding to a 45° flip angle); data size 16 K; relaxation delay 10 s; number of scans=16. […] The chemical exchange contrast was measured by magnetization transfer asymmetry, MTRasym. […]

hexokinase = settings: cited from earlier work
[2] = CEST NMR of 10 mM glucose analog solutions (MTRasym); assay type: physicochemical; settings: pH 6.3-7.8 tested, 1.2 ppm, T=25° C., 11.7 T
Protocol: as §1

[3] = rat, in vivo; cited from earlier work

Row | Compound | CEST enhancement (% CEST increase) in the tumor (DA3 mammary tumors; i.p. injection 1.5 g/kg, 7T, ±1.2 ppm, 2.5 μT) | Time after which the enhanced tumor CEST MRI image started to decay (DA3 mammary tumors; injection 1.5 g/kg) [min] | CEST effect in other organs (apart from the urinary bladder) (DA3 mammary tumors; injection 1.5 g/kg, throughout the MRI scans session) | Excretion [1] | CEST effect for the peak at 1.2 ppm in combined tumor extracts (DA3 tumors) | Phosphorylation (hexokinase) | Substrate for hexokinase (hexokinase) | pH at which the CEST effect has its maximum [2] | Toxic high concentration [3] [g/kg] | Toxicity [3]
1 | CO[C@@H]([C@H](O)[C@H](O)CO)[C@@H](O)C=O [3OMG, 3-O-methylglucose] | about 20% | > 20 | did not show any significant CEST effect | entirely excreted by the kidneys | significantly high | does not undergo phosphorylation | does not serve as substrate | ~7.5 |  | 
2 | O=CC[C@@H](O)[C@H](O)[C@H](O)CO [2-DG, 2-deoxy-D-glucose] |  |  |  |  |  |  |  |  | 3 | toxic at high concentrations
3 | O=C[C@H](F)[C@@H](O)[C@H](O)[C@H](O)CO [FDG, 2-fluoro-deoxy-D-glucose] |  |  |  |  |  |  |  |  |  | toxic at high concentrations
